Results: paper PMC4758672 (Bioorganic & medicinal chemistry letters, 2015)
Like-named read-outs stand apart in the source and are kept apart here. One block for each compound: values may come before it.

What was measured:
hmGlu1 [1] = biological target: T1, hmGlu1 (Homo sapiens, UniProt Q13255); experiment: Calcium mobilization mGlu1 PAM assay; assay type: cell-based; conditions: for Fold selective versus mGlu4: mGlu4 EC50 / mGlu1 EC50; for mGlu1 agonism / PAM profile: agonism at concentrations above 10 µM
[2] = Rat brain homogenate binding; assay type: in vitro ADME
[3] = In vitro predicted hepatic clearance, rat hepatic microsomes; assay type: in vitro ADME
[4] = In vitro predicted hepatic clearance, human hepatic microsomes; assay type: in vitro ADME
mGlu5 = mGlu5 (Homo sapiens, UniProt P41594); experiment: Activity at mGlu5; assay type: cell-based
[5] = cited from earlier work
[6] = human; cited from earlier work
[7] = rat; cited from earlier work
hmGlu1 [8] = biological target: T1, hmGlu1; conditions: cited from earlier work

T1 sequence (Q13255 19-1194): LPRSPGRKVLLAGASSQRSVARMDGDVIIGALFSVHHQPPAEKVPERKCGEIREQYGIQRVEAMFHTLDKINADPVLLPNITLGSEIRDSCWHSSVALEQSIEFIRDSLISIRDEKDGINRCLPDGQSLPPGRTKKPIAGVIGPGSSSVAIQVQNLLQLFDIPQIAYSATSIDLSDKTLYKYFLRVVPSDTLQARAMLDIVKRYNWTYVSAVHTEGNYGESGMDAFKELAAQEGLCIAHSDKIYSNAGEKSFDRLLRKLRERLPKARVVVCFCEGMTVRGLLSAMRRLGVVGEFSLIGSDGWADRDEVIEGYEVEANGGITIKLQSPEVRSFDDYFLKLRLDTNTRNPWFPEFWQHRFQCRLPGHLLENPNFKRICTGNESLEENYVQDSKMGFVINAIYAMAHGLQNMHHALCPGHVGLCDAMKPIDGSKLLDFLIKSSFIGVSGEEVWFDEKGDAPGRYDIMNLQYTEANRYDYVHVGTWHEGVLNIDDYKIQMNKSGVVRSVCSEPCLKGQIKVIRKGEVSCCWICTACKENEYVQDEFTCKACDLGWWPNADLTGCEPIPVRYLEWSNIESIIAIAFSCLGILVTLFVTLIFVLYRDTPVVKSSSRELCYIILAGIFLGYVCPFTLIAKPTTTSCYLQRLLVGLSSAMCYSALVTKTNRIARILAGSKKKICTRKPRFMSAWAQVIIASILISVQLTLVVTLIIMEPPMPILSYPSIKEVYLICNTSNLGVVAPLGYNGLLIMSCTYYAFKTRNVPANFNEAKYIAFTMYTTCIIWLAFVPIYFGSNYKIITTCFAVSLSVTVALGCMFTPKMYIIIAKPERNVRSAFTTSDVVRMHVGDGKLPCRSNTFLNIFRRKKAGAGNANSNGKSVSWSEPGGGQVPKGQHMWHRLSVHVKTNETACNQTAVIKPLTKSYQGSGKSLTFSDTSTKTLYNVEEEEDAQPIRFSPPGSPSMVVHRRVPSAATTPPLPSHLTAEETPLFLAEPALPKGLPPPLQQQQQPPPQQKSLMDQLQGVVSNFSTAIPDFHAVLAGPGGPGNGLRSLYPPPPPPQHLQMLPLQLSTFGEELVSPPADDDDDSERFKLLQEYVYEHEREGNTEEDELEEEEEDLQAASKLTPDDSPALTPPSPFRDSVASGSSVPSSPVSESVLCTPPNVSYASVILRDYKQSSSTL
Chain of mGlu5 (P41594 21-1212): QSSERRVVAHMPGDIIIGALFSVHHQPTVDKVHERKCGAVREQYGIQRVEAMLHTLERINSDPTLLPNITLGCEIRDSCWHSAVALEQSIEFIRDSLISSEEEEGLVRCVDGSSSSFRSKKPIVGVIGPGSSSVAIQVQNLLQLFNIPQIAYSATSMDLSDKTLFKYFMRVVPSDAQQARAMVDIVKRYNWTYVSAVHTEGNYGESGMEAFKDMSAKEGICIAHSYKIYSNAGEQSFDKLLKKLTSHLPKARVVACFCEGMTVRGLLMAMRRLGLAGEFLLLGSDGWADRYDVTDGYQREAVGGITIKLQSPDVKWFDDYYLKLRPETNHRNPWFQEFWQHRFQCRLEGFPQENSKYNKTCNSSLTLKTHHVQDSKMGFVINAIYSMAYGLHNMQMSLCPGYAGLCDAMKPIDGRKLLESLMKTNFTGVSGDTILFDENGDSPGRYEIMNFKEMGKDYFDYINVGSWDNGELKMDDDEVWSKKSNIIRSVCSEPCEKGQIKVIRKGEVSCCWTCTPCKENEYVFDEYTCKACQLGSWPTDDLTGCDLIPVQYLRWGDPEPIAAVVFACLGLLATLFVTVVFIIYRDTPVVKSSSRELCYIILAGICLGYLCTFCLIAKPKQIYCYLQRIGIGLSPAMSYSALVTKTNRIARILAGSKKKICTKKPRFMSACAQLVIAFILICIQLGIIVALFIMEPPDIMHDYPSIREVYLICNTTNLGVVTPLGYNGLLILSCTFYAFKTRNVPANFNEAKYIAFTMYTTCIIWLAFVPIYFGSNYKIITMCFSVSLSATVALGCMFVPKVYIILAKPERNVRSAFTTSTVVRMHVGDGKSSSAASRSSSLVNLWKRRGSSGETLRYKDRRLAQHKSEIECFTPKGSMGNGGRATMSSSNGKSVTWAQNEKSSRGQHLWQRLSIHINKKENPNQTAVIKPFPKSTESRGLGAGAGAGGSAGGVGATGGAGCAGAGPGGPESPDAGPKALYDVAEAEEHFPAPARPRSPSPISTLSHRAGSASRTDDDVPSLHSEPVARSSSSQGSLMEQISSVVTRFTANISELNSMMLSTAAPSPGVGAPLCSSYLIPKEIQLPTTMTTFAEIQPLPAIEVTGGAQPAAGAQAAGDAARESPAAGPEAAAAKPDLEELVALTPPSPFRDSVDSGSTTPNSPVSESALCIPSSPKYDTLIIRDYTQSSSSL

- mGlu1 versus mGlu4 PAM potency (hmGlu1 [1]): equipotent
- Fold selective versus mGlu4 (hmGlu1 [1]): >1.88 fold
Structure (SMILES): Cc1ccoc1C(=O)Nc1cnc(N2C(=O)c3cccc(F)c3C2=O)nc1 [11h]

- Fold selective versus mGlu4 (hmGlu1 [1]): >30.3 fold
Structure (SMILES): COc1cc(N2C(=O)c3ccccc3C2=O)ccc1NC(=O)c1occc1C [12e]

- fraction unbound [2]: < 0.01
- predicted hepatic clearance CLHEP [3]: 2.91 L/h/kg
- Fold selective versus mGlu4 (hmGlu1 [1]): >793 fold
- predicted hepatic clearance CLHEP [4]: 0.579 L/h/kg
- activity at mGlu5 (mGlu5): no activity
Structure (SMILES): Cc1ccoc1C(=O)Nc1ccc(N2C(=O)c3ccccc3C2=O)cc1F [12a]
- mGlu1 agonism / PAM profile (hmGlu1 [1]): did not show any observable agonistic effect

- fraction unbound [2]: < 0.01
- predicted hepatic clearance CLHEP [3]: 2.92 L/h/kg
- Fold selective versus mGlu4 (hmGlu1 [1]): >344 fold
- predicted hepatic clearance CLHEP [4]: 0.555 L/h/kg
- activity at mGlu5 (mGlu5): no activity
Structure (SMILES): Cc1ccoc1C(=O)Nc1ccc(N2C(=O)c3ccccc3C2=O)cc1Cl [12b]
- mGlu1 agonism / PAM profile (hmGlu1 [1]): did not show any observable agonistic effect

- Fold selective versus mGlu4 (hmGlu1 [1]): >25.8 fold
Structure (SMILES): Cc1ccoc1C(=O)Nc1ccc(N2C(=O)c3ccccc3C2=O)nc1 [11a]

Structure (SMILES): Cc1ccoc1C(=O)Nc1ccc(N2C(=O)c3cccc(F)c3C2=O)c(Cl)c1 [compound 4]
- Kp (CNS penetration) [5]: 1.02
- CLp ([5]; rat PK): 0.798 L/h/kg
- free fraction fu [6]: 0.05
- free fraction fu [7]: 0.03
- mGlu1 agonism (hmGlu1 [8]; at concentrations above 10 µM, previously observed with parent compound): considerable agonism
- selectivity versus mGlu4 (hmGlu1 [8]): 35 fold

- Fold selective versus mGlu4 (hmGlu1 [1]): >208 fold
Structure (SMILES): Cc1ccoc1C(=O)Nc1ccc(N2C(=O)c3ccccc3C2=O)cc1 [10a]

- mGlu1 versus mGlu4 PAM potency (hmGlu1 [1]): equipotent
Structure (SMILES): Cc1ccoc1C(=O)Nc1cnc(N2C(=O)c3ccccc3C2=O)nc1 [11e]
